Laboratory results taken from US12139520B2 (priority 2020, dated 2024).
Numbered stars: 1 amine (or outer) side, 2 acyl side, 3 side chain; on linkers, the order of the positions; unused ones are H or OH. Bridge positions count the residues as written; N and C are the ends. Square brackets hold non-standard residues; d marks the D form. Side chains are listed from the residue outwards. Peptide text beside a SMILES is read from it. * marks the point of attachment. C20 diacid = O=C(O)CCCCCCCCCCCCCCCCCCC(=O)*; γGlu = O=C(O)[C@H](CCC(=O)[*:2])N[*:1]; Hyp = O=C(O)[C@@H]1C[C@@H](O)CN1; AEEA = NCCOCCOCC(=O)O

What was measured:
[1] = Acute food intake study in lean rats; format: in vivo, rat; settings: 10 nmol/kg, single SC injection, lean healthy rats; for Average cumulative food intake: up to 48 h, P < 0.001 vs vehicle
Experimental: General Protocols for Acute Food Intake Study
The effect on cumulative food intake was measured in male Sprague Dawley rats (6 weeks of age, Taconic, Denmark) following a single dose using a fully automated food intake monitoring system (HM-2; MBRose ApS, Faaborg, Denmark), allowing for advanced synchronous real-time monitoring of food intake behaviour of individual animals. The animals were housed in groups of 4 in a light-, temperature-, and humidity-controlled room (a 12/12 LD cycle, lights on at 02:00 AM; 22±2° C.; 50% relative humidity). The mice had ad libitum access to regular chow diet (Altromin 1324, Brogaarden A/S, Lynge, Denmark) and domestic quality tap water. Mice arrived at day 7, and a minimum of 5 days of habituation to the system was allowed prior to beginning of the study. During these days, the animals were handled daily to accustom them to the experimental paradigm. On the day of dosing, the animals were randomized into groups according to body weight. Animals were fasted for four hours prior to dosing. Animals were dosed SC 30 or 180 min prior to lights out, and food intake data were collected automatically for a total of 48 h post-dosing with automatic food recordings every 5 min.

hAMY3 receptor = molecular target: T1, hAMY3 receptor (Homo sapiens, UniProt O60896+P30988); test: cAMP assay for in vitro receptor activation, hAMY3-R; format: cell-based; settings: cAMP assay, hAMY3 receptor; read-out: hAMY3R EC50
T1 sequence (P30988 25-474): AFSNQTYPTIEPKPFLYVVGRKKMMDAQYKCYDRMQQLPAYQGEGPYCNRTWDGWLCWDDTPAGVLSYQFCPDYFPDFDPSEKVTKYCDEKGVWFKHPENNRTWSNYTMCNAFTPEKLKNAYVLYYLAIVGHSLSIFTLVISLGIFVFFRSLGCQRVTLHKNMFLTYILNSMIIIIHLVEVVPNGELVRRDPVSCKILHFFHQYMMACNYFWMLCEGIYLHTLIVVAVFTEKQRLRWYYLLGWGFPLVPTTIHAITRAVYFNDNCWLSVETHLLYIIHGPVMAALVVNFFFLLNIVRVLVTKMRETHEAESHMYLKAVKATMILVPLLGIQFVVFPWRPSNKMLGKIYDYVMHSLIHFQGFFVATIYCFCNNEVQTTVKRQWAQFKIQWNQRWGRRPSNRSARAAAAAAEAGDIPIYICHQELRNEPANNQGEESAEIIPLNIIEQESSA
T1 sequence (O60896 24-148 partner): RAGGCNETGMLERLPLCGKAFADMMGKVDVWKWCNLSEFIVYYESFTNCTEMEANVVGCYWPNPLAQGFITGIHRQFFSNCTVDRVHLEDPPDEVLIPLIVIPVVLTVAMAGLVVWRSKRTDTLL
Outline: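 Graded compound concentrations were applied for 30 min at room temperature to stably hAMY3-expressing cells in DPBS, 0.05% casein, 0.5 mM IBMX; cAMP detected by TR-FRET.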

hAM1 receptor = hAM1 receptor (Homo sapiens, UniProt O60895+Q16602); test: cAMP assay for in vitro receptor activation, hAM1-R; format: cell-based; settings: cAMP assay, hAM1 receptor; read-out: hAM1R EC50
Outline: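 Stable hAM1 cells (monoclonal) plated 8000/well; buffer DPBS, 0.05% casein, 0.5 mM IBMX; cAMP read-out.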

hAM1 receptor, sequence (Q16602 23-461): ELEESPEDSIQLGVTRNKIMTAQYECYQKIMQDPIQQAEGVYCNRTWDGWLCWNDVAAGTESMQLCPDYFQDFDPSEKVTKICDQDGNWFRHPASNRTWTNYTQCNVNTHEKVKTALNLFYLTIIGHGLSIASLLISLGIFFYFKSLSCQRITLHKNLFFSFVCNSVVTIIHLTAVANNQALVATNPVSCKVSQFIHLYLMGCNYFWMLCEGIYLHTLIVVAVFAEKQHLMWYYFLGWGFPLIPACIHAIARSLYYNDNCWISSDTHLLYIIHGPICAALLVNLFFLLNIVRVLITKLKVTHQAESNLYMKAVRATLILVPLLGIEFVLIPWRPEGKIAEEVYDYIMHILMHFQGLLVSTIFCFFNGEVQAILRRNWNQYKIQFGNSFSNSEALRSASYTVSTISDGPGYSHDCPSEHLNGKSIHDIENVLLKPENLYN
hAM1 receptor, sequence (O60895 43-175 partner): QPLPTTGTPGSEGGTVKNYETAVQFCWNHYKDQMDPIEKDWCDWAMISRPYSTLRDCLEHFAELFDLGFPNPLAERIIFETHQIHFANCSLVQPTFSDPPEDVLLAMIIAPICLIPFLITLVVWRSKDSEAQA

## CC[C@H](C)[C@H](NC(=O)[C@H](CCC(N)=O)NC(=O)[C@H](CCC(=O)O)NC(=O)[C@H](C)NC(=O)[C@H](CC(C)C)NC(=O)[C@H](CCCNC(=N)N)NC(=O)[C@H](CCC(N)=O)NC(=O)[C@@H](NC(=O)[C@@H](NC(=O)[C@@H]1CSSC[C@H](NC(=O)[C@@H](N)CCCCN)C(=O)N[C@@H](CC(N)=O)C(=O)N[C@@H]([C@@H](C)O)C(=O)N[C@@H](C)C(=O)N[C@@H]([C@@H](C)O)C(=O)N1)[C@@H](C)O)C(C)C)C(=O)N[C@@H](Cc1ccc(O)cc1)C(=O)N[C@@H](CCC(N)=O)C(=O)N[C@@H](Cc1ccccc1)C(=O)N[C@H](C(=O)N[C@@H](CC(=O)O)C(=O)N[C@@H](CCCCN)C(=O)N[C@@H](CC(=O)O)C(=O)N[C@@H](CCCCN)C(=O)N[C@@H](CC(=O)O)C(=O)N[C@@H](CC(N)=O)C(=O)N[C@H](C(=O)N[C@@H](C)C(=O)N1CCC[C@H]1C(=O)N1CCC[C@H]1C(=O)N[C@H](C(=O)N[C@@H](CC(N)=O)C(=O)N[C@H](C(=O)NCC(=O)N[C@@H](CO)C(=O)N[C@@H](CCCCNC(=O)COCCOCCNC(=O)COCCOCCNC(=O)CC[C@H](NC(=O)CCCCCCCCCCCCCCCCCCC(=O)O)C(=O)O)C(=O)NCC(=O)N1C[C@H](O)C[C@H]1C(N)=O)C(C)C)[C@@H](C)O)C(C)C)[C@@H](C)O [compound 6] (H-KCNTATCTVQRLAEQIYQFTDKDKDNVAPPTNVGSK([AEEA-AEEA-γGlu-C20 diacid])G[Hyp]-NH2; disulfide 2-7; N-terminus assumed)
[1]
  cumulative food intake, % to vehicle: 65.63%
  Average cumulative food intake: 27.5 g
hAMY3 receptor
  EC50: 0.006 nM
hAM1 receptor
  EC50: > 5000 nM

## CC[C@H](C)[C@H](NC(=O)[C@H](CCC(N)=O)NC(=O)[C@H](CCC(=O)O)NC(=O)[C@H](C)NC(=O)[C@H](CC(C)C)NC(=O)[C@H](CCCNC(=N)N)NC(=O)[C@H](CCC(N)=O)NC(=O)[C@@H](NC(=O)[C@@H](NC(=O)[C@@H]1CSSC[C@H](NC(=O)[C@@H](N)CCCCN)C(=O)N[C@@H](CCCCNC(=O)COCCOCCNC(=O)COCCOCCNC(=O)CC[C@H](NC(=O)CCCCCCCCCCCCCCCCCCC(=O)O)C(=O)O)C(=O)N[C@@H]([C@@H](C)O)C(=O)N[C@@H](C)C(=O)N[C@@H]([C@@H](C)O)C(=O)N1)[C@@H](C)O)C(C)C)C(=O)N[C@@H](Cc1ccc(O)cc1)C(=O)N[C@@H](CCC(N)=O)C(=O)N[C@@H](Cc1ccccc1)C(=O)N[C@H](C(=O)N[C@@H](CC(=O)O)C(=O)N[C@@H](CCCCN)C(=O)N[C@@H](CC(=O)O)C(=O)N[C@@H](CCCCN)C(=O)N[C@@H](CC(=O)O)C(=O)N[C@@H](CC(N)=O)C(=O)N[C@H](C(=O)N[C@@H](C)C(=O)N1CCC[C@H]1C(=O)N1CCC[C@H]1C(=O)N[C@H](C(=O)N[C@@H](CC(N)=O)C(=O)N[C@H](C(=O)NCC(=O)N[C@@H](CO)C(=O)N[C@@H](CC(N)=O)C(=O)NCC(=O)N1C[C@H](O)C[C@H]1C(N)=O)C(C)C)[C@@H](C)O)C(C)C)[C@@H](C)O [compound 36] (H-KCK([AEEA-AEEA-γGlu-C20 diacid])TATCTVQRLAEQIYQFTDKDKDNVAPPTNVGSNG[Hyp]-NH2; disulfide 2-7; N-terminus assumed)
[1]
  cumulative food intake, % to vehicle: 55.61%
  Average cumulative food intake: 23.3 g
hAMY3 receptor
  EC50: 0.009 nM
hAM1 receptor
  EC50: > 5000 nM
